Data published in patent publication US8389728B2, “Pollen tube stimulants from Arabidopsis pistils” (The Arizona Board of Regents, priority 2009, dated 2013).

Tests used:
[1] = tested on: pollen from the Arabidopsis Columbia strain; assay: Time course of pollen germination and tube growth, Columbia strain; assay type: cell-based, Arabidopsis thaliana
Method: (§1) Using the optimal concentration of compound for pollen tube stimulation (0.02 mg compound dispensed into 50 μL of pollen growth medium) pollen tube growth were time lapse imaged for a duration of greater than 12 hours. […] For example, Landsberg pollen grew about 130 μm longer in the presence of compound A compared to compound B (FIG. 11B).

Arabidopsis pollen = assay: Time lapse imaging of pollen germination and pollen tube growth; assay type: cell-based, Arabidopsis thaliana; settings: for initiation of germination compared to no compound controls: 0.02 mg compound in 50 μL PGM, time lapse > 12 hours; for rate of pollen germination (in words): 0.02 mg compound in 50 μL of pollen growth medium
Method: as §1

[2] = tested on: Arabidopsis thaliana, ecotype Columbia; assay: Stimulation of pollen germination and pollen tube growth in vivo (seed yield); settings: sprayed onto plants after blossoms open
Source text: The stimulation of pollen germination in vivo may be achieved by applying an effective amount of one or both Compound A or Compound B, or functional derivative thereof, to a plant, such as Arabidopsis thaliana, ecotype Columbia, or another plant that is sufficiently evolutionarily related to Arabidopsis, such as a member of family Brassicaceae. The pollen growth stimulant can be applied in any formulation such as described herein and by any method of applying a compound to the flower of a plant. For example, an effective amount of Compound A can be sprayed onto any given number of plants in an area after blossoms open and pistils are exposed.

[3] = tested on: pollen from the Landsberg strain; assay: Time course of pollen germination and tube growth, Landsberg strain; assay type: cell-based, Arabidopsis thaliana; settings: 0.02 mg compound
Method: as §1

[4] = Han et al. 2007; cited from earlier work

**Q.** For `C[S+]([O-])N1CCCC2CCCCC21` (stereo not drawn) [Compound A, 1-Methylsulfinyldecahydroquinoline], which “extent of pollen growth, compound A versus B (in words)” value [1] is on record?
**A.** grew to a similar extent

**Q.** And the “initiation of germination compared to no compound controls” value (Arabidopsis pollen)?
**A.** approximately two hours earlier

**Q.** And the “rate of pollen germination (in words)” value (Arabidopsis pollen)?
**A.** enhanced the rate of pollen germination

**Q.** What about the “seed yield of plants exposed versus not exposed” value [2] of the same compound?
**A.** increased seed yield

**Q.** What about the “additional pollen tube length in the presence of compound A compared to compound B” value [3] of the same compound?
**A.** about 130 μm

**Q.** For `C[S+]([O-])N1CCC2CCCCC2C1` (stereo not drawn) [Compound B, 2-Methylsulfinyldecahydroisoquinoline], which “extent of pollen growth, compound A versus B (in words)” value [1] is on record?
**A.** grew to a similar extent

**Q.** What about the “initiation of germination compared to no compound controls” value (Arabidopsis pollen) of the same compound?
**A.** approximately two hours earlier

**Q.** And the “rate of pollen germination (in words)” value (Arabidopsis pollen)?
**A.** enhanced the rate of pollen germination

**Q.** Which “solubility in ethyl acetate” value [4] does the source give for `O=c1c(O)c(-c2ccc(O)cc2)oc2cc(O)cc(O)c12` [kaempferol] here?
**A.** highly soluble in ethyl acetate
